Test results from US5994365A, “Substituted diazaanthracene compounds having pharmaceutical utility” (Diazans Limited, priority 1998, dated 1999).

What was measured:
T. glabrata ATCC 90030 = assay: In vitro antifungal susceptibility assay adapted from NCCLS (MIC); assay type: cell-based, Torulopsis glabrata; settings: RPMI-1640
Procedure: Compounds of the invention also display antifungal activities. […] Using C. albicans ATCC® 90028, C. neoformans ATCC® 90112 and T. glabrata ATCC® 90030, the protocol is performed as follows:
Prepare 0.0128 g DAA in 10 mL dH2 O (or other if H2 O insoluble)=1280 μg/mL (stock solution). Dilute DAA stock solution 1:10 with RPMI-1640: 0.5 mL DAA stock solution+4.5 mL RPMI-1640=128 μg/mL (DAA working solution).
Inoculate rows A-H, columns 2-12 with 100 μl of RPMI-1640 using Eppendorf repeater pipette. Inoculate rows A-C columns 1 and 2 with 100 μl of 1st antibiotic (i.e. DAA-1) using electronic pipette. Inoculate rows E-G columns 1 and 2 with 100 μl of 2nd antibiotic (i.e. DAA-2) using electronic pipette. […] Plate is now ready for fungal inocula, which involves pipetting 100 μl of the inocula into all wells in rows A-C columns 1-12 and rows E-G columns 1-12. […]
Five colonies greater than 1 mm in diameter are suspended in a spectrophotometer cuvette containing 5 mL of sterile, 0.85% saline (colonies are obtained from 24 hrs. old Candida and Torulopsis cultures, while Cryptococcus colonies are chosen from 48 hrs. old cultures). Spectrophotometer is set to read % transmission at a wavelength of 530 nm, and is standardized using two cuvettes. […] Fungal inoculum is now prepared and ready to be introduced to microplates. […]

[1] = test system: Coagulase negative Staph (Staneg); assay: Broth microdilution (NCCLS guidelines), MIC; assay type: cell-based, Coagulase negative staphylococci; settings: for MIC50 / MIC90 / Range of MICs: 10 strains
Procedure: (§1) The dimer product of Example 15 was obtained in powder form. A stock solution of 1280 mg/L of the dimer in dimethylsulfoxide (DMSO) was prepared and stored at room temperature in a foil-wrapped screw-capped tube (10 ml). Subsequent dilutions were prepared using cation-adjusted Mueller-Hinton broth (50 mg/L Mg). […] It was resuspended upon mixing each time an aliquot was taken from the solution.
(§2) Approximately 100 varied bacterial isolates were initially collected for screening, along with 9 ATCC organisms. Forty additional strains of Staphylococcus species were subsequently screened. All isolates were identified according to generally accepted lab protocol.
(§3) Broth microdilution was performed according to NCCLS guidelines. Microdilution panels were prepared using doubling dilutions of the dimer in ~250 μl plastic, 96-well trays. Inoculum suspension equal to a 0.5 McFarland standard were further diluted and added to the microdilution trays to achieve a final inoculum of 5×10^5 CFU/ml (5×10^4 CFU/well). Colony counts were performed to confirm the final inoculum, as well as its purity. Each strain was also tested in a growth control well containing only MHB for viability.
(§4) Microdilution trays were incubated at 35° C. in ambient air or 5% CO2 as appropriate for 16-20 hours. After incubation, the minimal inhibitory concentration (MIC) was defined as the lowest concentration of the dimer with no evidence of growth. Since 10 or more strains of most organisms were tested; a range of MICs was determined for each organism, as well as the concentration of the dimer that inhibited 50% of the strains (MIC50) and the concentration of the dimer that inhibited 90% of the strains (MIC90).

Strep pneumoniae = assay: Broth microdilution (NCCLS guidelines), MIC; assay type: cell-based; settings: Table A
Procedure: as §1, §2, §3, §4
(§5) **5% lysed horse blood in MHB (cation supplemented)

β strep grp A = assay: Broth microdilution (NCCLS guidelines), MIC; assay type: cell-based; settings: Table A
Procedure: as §1, §2, §3, §4, §5

[2] = test system: Staneg (coagulase negative Staph); assay: Minimal bactericidal concentration (MBC), 99.9% kill; assay type: cell-based, Coagulase negative staphylococci; parameters: unit not given here
Procedure: as §3
Various isolates were also tested for minimal bactericidal concentration (MBC) (see Tables D and F).
Subbed clear wells (50 μl) Inoculum 5 × 10^4 /well
99.9% kill = 50 cols/well
Subbed 50 μl of ≤5 clear wells

[3] = 10 strains, 5% lysed horse blood in MHB

“10,10'-bis(3,6-dimethyl-5,10-dihydro-1,8-diazaanthracen-5-one) and 5,5'-bis(3,6-dimethyl-5,10-dihydro-1,8-diazaanthracen-10-one) [Example 15]” gave an MIC (T. glabrata ATCC 90030) of 16 µg/mL, an MIC50 ([1]; Table A) of 0.125 µg/mL and an MIC90 ([1]; Table A) of 0.5 µg/mL. For the same substance, the “Range of MICs” value ([1]; Table A) was “.0625 to 1.0 mg/L”, the MIC50 ([1]; Table C, solution 14 days old) was 1 µg/mL and the MIC90 ([1]; Table C, solution 14 days old) was 2 µg/mL. The MIC ([1]; Table D, Staneg 1) was 2 µg/mL, the MIC ([1]; Table D, Staneg 2) was 0.25 µg/mL and the MIC ([1]; Table D, Staneg 3) was 2 µg/mL. It also gave an MIC ([1]; Table D, Staneg 4) of over 16 µg/mL, an MIC ([1]; Table D, Staneg 5) of 1 µg/mL and an MIC ([1]; Table D, Staneg 6) of 1 µg/mL. For the same substance, the MIC ([1]; Table D, Staneg 7) was 1 µg/mL, the MIC ([1]; Table D, Staneg 8) was 1 µg/mL and the MIC50 ([1]; Table E, fresh solution) was 0.25 µg/mL. For the same substance, the MIC90 ([1]; Table E, fresh solution) was 0.5 µg/mL, the “Range of MICs” value ([1]; Table E, fresh solution, in µg/mL) was 0.0625-4 and the MIC ([1]; Table F, Staneg 1) was 0.0625 µg/mL. For the same substance, the MIC ([1]; Table F, Staneg 4) was 4 µg/mL, the MIC ([1]; Table F, Staneg 7) was 0.25 µg/mL and the MIC50 ([1]; Table G) was 0.25 µg/mL. The MIC90 ([1]; Table G) was “.5 µg/mL”, the “Range of MICs” value ([1]; Table G) was 0.0625 to 4 mg/L and the MIC50 (Strep pneumoniae; [3]) was 8 µg/mL. The MIC90 (Strep pneumoniae; [3]) was 16 µg/mL, the “Range of MICs” value (Strep pneumoniae; [3]) was 8 to 32 mg/L and the MIC (Strep pneumoniae; ATCC STRPNE 49619, 5% lysed horse blood in MHB) was 2.0 µg/mL. For the same substance, the MIC50 (β strep grp A; [3]) was 32 µg/mL, the MIC90 (β strep grp A; [3]) was 64 µg/mL and the “Range of MICs” value (β strep grp A; [3]) was 32 to 64 mg/L. The MIC (β strep grp A; ATCC STRA 19615, 5% lysed horse blood in MHB) was 32 µg/mL, the MBC ([2]; Table D, Staneg 1, skipped wells) was over 16 and the MBC ([2]; Table D, Staneg 2, skipped wells) was over 4. The MBC ([2]; Table D, Staneg 3) was 16, the MBC ([2]; Table D, Staneg 4) was over 16 and the MBC ([2]; Table D, Staneg 5, skipped wells) was 16. The MBC ([2]; Table D, Staneg 6) was 8, the MBC ([2]; Table D, Staneg 7, skipped wells) was over 16 and the MBC ([2]; Table D, Staneg 8) was 16. The MBC ([2]; Table F, Staneg 1) was over 1.0, the MBC ([2]; Table F, Staneg 4, skipped wells) was over 16 and the MBC ([2]; Table F, Staneg 7) was 1.0.
